Data on 26 molecules can be found in US8008505B2, “Indazole or 4,5,6,7-tetrahydro-indazole derivatives” (Hoffmann-La Roche Inc., priority 2008, dated 2011).

Molecules are shown by their SMILES.

The test has as its target T1, FXR ligand binding domain (Homo sapiens, UniProt Q96RI1).
T1 sequence (Q96RI1 1-486): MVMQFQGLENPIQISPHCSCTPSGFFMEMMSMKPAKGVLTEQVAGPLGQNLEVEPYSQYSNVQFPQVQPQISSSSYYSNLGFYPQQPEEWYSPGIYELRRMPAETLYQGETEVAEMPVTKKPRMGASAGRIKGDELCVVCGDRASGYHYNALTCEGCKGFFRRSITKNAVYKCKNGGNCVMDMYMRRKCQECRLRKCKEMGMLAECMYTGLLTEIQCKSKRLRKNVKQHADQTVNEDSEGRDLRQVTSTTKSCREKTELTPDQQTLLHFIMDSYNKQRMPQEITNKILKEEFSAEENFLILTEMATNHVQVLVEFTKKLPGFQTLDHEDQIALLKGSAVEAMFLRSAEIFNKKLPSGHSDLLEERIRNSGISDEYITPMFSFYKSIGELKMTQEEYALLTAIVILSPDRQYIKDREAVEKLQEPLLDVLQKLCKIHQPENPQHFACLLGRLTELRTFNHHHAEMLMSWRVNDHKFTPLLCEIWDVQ
Description: Radioligand binding assay (radioligand displacement, scintillation proximity). The conditions noted are these: GST-FXR LBD fusion protein on SPA beads, radioligand 2,N-dicyclohexyl-2-[2-(2,4 dimethoxy-phenyl)-benzoimidazol-1-yl]-acetamide, RT 30 minutes. The protocol:
The following tests were carried out in order to determine the activity of the compounds of formula I. Background information on the binding assay can be found in: Nichols J S et al. “Development of a scintillation proximity assay for peroxisome proliferator-activated receptor gamma ligand binding domain”, (1998) Anal. Biochem. 257: 112-119.
Bacterial and mammalian expression vectors were constructed to produce glutathione-s-transferase (GST) and Gal4 DNA binding domain (GAL) proteins fused to the ligand binding domain (LBD) of human FXR (aa 193-473). To accomplish this, the portions of the sequences encoding the FXR LBD were amplified by polymerase chain reaction (PCR) from a full-length clone by PCR and then subcloned into the plasmid vectors. The final clone was verified by DNA sequence analysis.
The induction, expression, and subsequent purification of GST-LBD fusion protein was performed in E. coli strain BL21(pLysS) cells by standard methods (Current Protocols in Molecular Biology, Wiley Press, ed. Ausubel et al).
Radioligand Binding Assay
Binding of test substances to the FXR ligand binding domain was assessed in a radioligand displacement assay. The assay was performed in a buffer consisting of 50 mM Hepes, pH 7.4, 10 mM NaCl, 5 mM MgCl2. For each reaction well in a 96-well plate, 40 nM of GST-FXR LBD fusion protein was bound to 10 μg glutathione ytrium silicate SPA beads (Pharmacia Amersham) in a final volume of 50 μl by shaking. A radioligand (eg. 40 nM) of 2,N-dicyclohexyl-2-[2-(2,4 dimethoxy-phenyl)-benzoimidazol-1-yl]-acetamide) was added, and the reaction incubated at RT for 30 minutes in the presence of test compounds followed by scintillation proximity counting. All binding assays were performed in 96-well plates and the amount of bound ligand was measured on a Packard TopCount using OptiPlates (Packard). Dose response curves were performed within a range of concentration from 6×10^−9 M to 2.5×10^−5 M.
In general terms: In a radioligand displacement assay an active substance lowers the binding of a labelled ligand.
As to `O=C(NC1CCCCC1)C(c1c2c(nn1-c1ccc(Cl)cc1)CCCC2)C1CCCCC1` (centres unmarked) [Example 6, 2-[2-(4-Chloro-phenyl)-4,5,6,7-tetrahydro-2H-indazol-3-yl]-2,N-dicyclohexyl-acetamide], the IC50 stood at 155 nM.
Then `O=C(NC1CCCCC1)C(c1c2ccccc2nn1-c1ccc(Cl)cc1)C1CCCCC1` (centres unmarked) [Example 4, 2-[2-(4-Chloro-phenyl)-2H-indazol-3-yl]-2,N-dicyclohexyl-acetamide], with 1390 nM; and `N#Cc1ccc(OCC(c2c3c(nn2-c2ccc(Cl)cc2)CCCC3)C2CCCCC2)c(F)c1` (racemic) [Example 37, [rac]-4-{2-[2-(4-Chloro-phenyl)-4,5,6,7-tetrahydro-2H-indazol-3-yl]-2-cyclohexyl-ethoxy}-3-fluoro-benzonitrile], with 3480 nM; and `O=C(Nc1ccc(OC2(C(=O)O)CC2)cc1F)[C@H](c1c2c(nn1-c1ccc(Cl)cc1)CCCC2)C1CCCCC1` [Example 23, (−)-1-(4-{2-[2-(4-Chloro-phenyl)-4,5,6,7-tetrahydro-2H-indazol-3-yl]-2-cyclohexyl-acetylamino}-3-fluoro-phenoxy)-cyclopropanecarboxylic acid], with 21 nM.
Then `O=C(NC1CCCCC1)C(c1c2ccccc2nn1-c1ccccc1)C1CCCCC1` (centres unmarked) [Example 1, 2,N-Dicyclohexyl-2-(2-phenyl-2H-indazol-3-yl)-acetamide], with 1920 nM; and `O=C(Nc1ccc(F)cc1F)C(c1c2c(nn1-c1ccc(Cl)cc1)CCCC2)C1CCCCC1` (racemic) [Example 14, [rac]-2-[2-(4-Chloro-phenyl)-4,5,6,7-tetrahydro-2H-indazol-3-yl]-2-cyclohexyl-N-(2,4-difluoro-phenyl)-acetamide], with 2830 nM; and `O=C(O)c1ccc(OCC(c2c3c(nn2-c2ccc(Cl)cc2)CCCC3)C2CCCCC2)nc1` (racemic) [Example 64, [rac]-6-{2-[2-(4-Chloro-phenyl)-4,5,6,7-tetrahydro-2H-indazol-3-yl]-2-cyclohexyl-ethoxy}-nicotinic acid], with 250 nM.
Take `O=C(Nc1ccc(OC2(C(=O)O)CC2)cc1F)C(c1c2c(nn1-c1ccc(Cl)cc1)CCCC2)C1CCCCC1` (racemic) [Example 16, [rac]-1-(4-{2-[2-(4-Chloro-phenyl)-4,5,6,7-tetrahydro-2H-indazol-3-yl]-2-cyclohexyl-acetylamino}-3-fluoro-phenoxy)-cyclopropanecarboxylic acid]: the IC50 is 223 nM. The IC50 values of the last two molecules are within 1.5-fold of each other.
In the case of `O=C(O)c1ccc(SCC(c2c3c(nn2-c2ccc(Cl)cc2)CCCC3)C2CCCCC2)cc1` (racemic) [Example 63, [rac]-4-{2-[2-(4-Chloro-phenyl)-4,5,6,7-tetrahydro-2H-indazol-3-yl]-2-cyclohexyl-ethylsulfanyl}-benzoic acid], the IC50 worked out at 200 nM.
Then `Cc1cc(C(=O)O)cc(C)c1OCC(c1c2cc(F)c(F)cc2nn1-c1ccc(Cl)cc1)C1CCCCC1` (racemic) [Example 43, [rac]-4-{2-[2-[4-Chloro-phenyl]-5,6-difluoro-2H-indazol-3-yl]-2-cyclohexyl-ethoxy}-3,5-dimethyl-benzoic acid], with 29 nM; and `N#Cc1ccc(COC(c2c3c(nn2-c2ccc(Cl)cc2)CCCC3)C2CCCCC2)cc1` (racemic) [Example 44, [rac]-4-{[2-(4-Chloro-phenyl)-4,5,6,7-tetrahydro-2H-indazol-3-yl]-cyclohexyl-methoxymethyl}-benzonitrile], with 5620 nM.
`N#Cc1ccc(OC(c2c3cc(F)c(F)cc3nn2-c2ccc(Cl)cc2)C2CCCCC2)c(F)c1` (racemic) [Example 35, [rac]-4-{[2-(4-Chloro-phenyl)-5,6-difluoro-2H-indazol-3-yl]-cyclohexyl-methoxy}-3-fluoro-benzonitrile] gave an IC50 of 870 nM.
Molecule `O=C(NC1CCCCC1)C(c1ccccc1)c1c2ccccc2nn1-c1ccccc1` (centres unmarked) [Example 3, N-Cyclohexyl-2-phenyl-2-(2-phenyl-2H-indazol-3-Y1)-acetamide] came in with an IC50 of 7440 nM.
Regarding `Fc1cc2nn(-c3ccc(Cl)cc3)c(C(OCc3ccc(-c4nnn[nH]4)cc3)C3CCCCC3)c2cc1F` (racemic) [Example 49, [rac]-2-(4-Chloro-phenyl)-3-{cyclohexyl-[4-(2H-tetrazol-5-yl)-benzyloxy]-methyl}-5,6-difluoro-2H-indazole], the IC50 is 4 nM.
Then `O=C(O)c1ccc(NC(=O)C(c2c3cc(F)c(F)cc3nn2-c2ccc(Cl)cc2)C2CCCCC2)c(F)c1` (racemic) [Example 32, [rac]-4-{2-[2-(4-Chloro-phenyl)-5,6-difluoro-2H-indazol-3-yl]-2-cyclohexyl-acetylamino}-3-fluoro-benzoic acid], with 1700 nM; and `COc1cccc(C(C(=O)NC2CCCCC2)c2c3ccccc3nn2-c2ccccc2)c1` (centres unmarked) [Example 2, N-Cyclohexyl-2-(3-methoxy-phenyl)-2-(2-phenyl-2H-indazol-3-yl)-acetamide], with 9170 nM; and `O=C(Nc1ccc(OC2(C(=O)O)CC2)cc1F)C(c1c2c(nn1-c1ccc(Cl)cc1)CCCC2)C1CCCCC1` (single isomer, unassigned; (+)) [Example 22, (+)-1-(4-{2-[2-(4-Chloro-phenyl)-4,5,6,7-tetrahydro-2H-indazol-3-yl]-2-cyclohexyl-acetylamino}-3-fluoro-phenoxy)-cyclopropanecarboxylic acid], with 2060 nM.
Then `N#Cc1ccc(COC(c2c3cc(F)c(F)cc3nn2-c2ccc(Cl)cc2)C2CCCCC2)c(F)c1` (racemic) [Example 41, [rac]-4-{[2-(4-Chloro-phenyl)-5,6-difluoro-2H-indazol-3-yl]-cyclohexyl-methoxymethyl}-3-fluoro-benzonitrile], with 7130 nM; and `O=C(O)c1ccc(COC(c2c3ccccc3nn2-c2ccc(Cl)cc2)C2CCCCC2)cc1` (racemic) [Example 18], with 360 nM.
The molecule `O=C(O)c1ccc(NC(=O)C(O)(c2c3c(nn2-c2ccc(Cl)cc2)CCCC3)C2CCCCC2)c(F)c1` (centres unmarked) [Example 5, 4-{2-[2-(4-Chloro-phenyl)-4,5,6,7-tetrahydro-2H-indazol-3-yl]-2-cyclohexyl-2-hydroxy-acetylamino}-3-fluoro-benzoic acid] gave a concentration for half-maximal inhibition (IC50) of 2050 nM.
The same measure for `O=C(O)C1(Oc2ccc(OCC(c3c4c(nn3-c3ccc(Cl)cc3)CCCC4)C3CCCCC3)cc2)CC1` (racemic) [Example 55, [rac]-1-(4-{2-[2-(4-Chloro-phenyl)-4,5,6,7-tetrahydro-2H-indazol-3-yl]-2-cyclohexyl-ethoxy}-phenoxy)-cyclopropanecarboxylic acid]: 42 nM; for `Fc1cc2nn(-c3ccc(Cl)cc3)c(C(OCc3ccc(-c4nnn[nH]4)cc3F)C3CCCCC3)c2cc1F` (racemic) [Example 42, [rac]-2-(4-Chloro-phenyl)-3-{cyclohexyl-[2-fluoro-4-(2H-tetrazol-5-yl)-benzyloxy]-methyl}-5,6-difluoro-2H-indazole]: 14 nM; for `Fc1cc(-c2nnn[nH]2)ccc1OCC(c1c2ccccc2nn1-c1ccc(Cl)cc1)C1CCCCC1` (racemic) [Example 31, [rac]-2-(4-Chloro-phenyl)-3-{1-cyclohexyl-2-[2-fluoro-4-(2H-tetrazol-5-yl)-phenoxy]-ethyl}-2H-indazole]: 100 nM.
The same measure for `O=C(NC1CCCCC1)C(c1c2cc(F)c(F)cc2nn1-c1ccc(Cl)cc1)C1CCCCC1` (racemic) [Example 24, [rac]-2-[2-(4-Chloro-phenyl)-5,6-difluoro-2H-indazol-3-yl]-2,N-dicyclohexyl-acetamide]: 680 nM; for `CC(C)(Oc1ccc(NC(=O)C(c2c3cc(F)c(F)cc3nn2-c2ccc(Cl)cc2)C2CCCCC2)c(F)c1)C(=O)O` (racemic) [Example 26, [rac]-2-(4-{2-[2-(4-Chloro-phenyl)-5,6-difluoro-2H-indazol-3-yl]-2-cyclohexyl-acetylamino}-3-fluoro-phenoxy)-2-methyl-propionic acid]: 570 nM.
The same measure for `Cc1cc(C(=O)O)cc(C)c1OCC(c1c2ccccc2nn1-c1ccc(Cl)cc1)C1CCCCC1` (racemic) [Example 29, [rac]-4-{2-[2-(4-Chloro-phenyl)-2H-indazol-3-yl]-2-cyclohexyl-ethoxy}-3,5-dimethyl-benzoic acid]: 26 nM.

Broadly, the IC50 is the midpoint of a concentration-inhibition curve. A higher IC50 goes with weaker potency.
